Laboratory results published in ChEMBL document CHEMBL3045586, “Synthesis and antimicrobial activity of some new 4-triazolylmethoxy-2H-chromen-2-one derivatives” (2012).
Converted amounts (≈) assume the structure as drawn.

Tests used:
[1] = test system: Escherichia coli; type: functional, MTCC 443
[2] = test system: Pseudomonas aeruginosa; experiment: Antibacterial activity against Pseudomonas aeruginosa MTCC 424 after 16 to 18 hr by serial dilution method; type: functional
[3] = test system: Pseudomonas aeruginosa; type: functional, MTCC 424
[4] = test system: Aspergillus flavus; experiment: Antifungal activity against Aspergillus flavus MTCC 277 after 28 to 30 hr by serial dilution method; type: functional
[5] = test system: Aspergillus fumigatus; experiment: Antifungal activity against Aspergillus fumigatus MTCC 343 at […] to […] ug/ml after 28 to 30 hr by cup-plate method; type: functional
[6] = test system: Staphylococcus aureus; experiment: Antibacterial activity against Staphylococcus aureus MTCC 096 after 16 to 18 hr by serial dilution method; type: functional
[7] = test system: Aspergillus niger; experiment: Antifungal activity against Aspergillus niger MTCC 282 at […] to […] ug/ml after 28 to 30 hr by cup-plate method; type: functional
[8] = test system: Klebsiella pneumoniae; experiment: Antibacterial activity against Klebsiella pneumoniae MTCC 432 after 16 to 18 hr by serial dilution method; type: functional
[9] = test system: Escherichia coli; experiment: Antibacterial activity against Escherichia coli MTCC 443 after 16 to 18 hr by serial dilution method; type: functional
[10] = test system: Bacillus subtilis; type: functional, MTCC 441
[11] = test system: Aspergillus flavus; experiment: Antifungal activity against Aspergillus flavus MTCC 277 at […] to […] ug/ml after 28 to 30 hr by cup-plate method; type: functional
[12] = test system: Staphylococcus epidermidis; type: functional, MTCC 435
[13] = test system: Salmonella typhi; experiment: Antibacterial activity against Salmonella enterica subsp. enterica serovar Typhi MTCC 733 after 16 to 18 hr by serial dilution method; type: functional
[14] = test system: Salmonella typhi; experiment: Antibacterial activity against Salmonella enterica subsp. enterica serovar Typhi MTCC 733 at […] to […] ug/ml after 16 to 18 hr by cup-plate method; type: functional
[15] = test system: Bacillus subtilis; experiment: Antibacterial activity against Bacillus subtilis MTCC 441 after 16 to 18 hr by serial dilution method; type: functional
[16] = test system: Staphylococcus aureus; type: functional, MTCC 096
[17] = test system: Klebsiella pneumoniae; type: functional, MTCC 432
[18] = test system: Candida albicans; experiment: Antifungal activity against Candida albicans MTCC 227 after 28 to 30 hr by serial dilution method; type: functional
[19] = test system: Staphylococcus epidermidis; experiment: Antibacterial activity against Staphylococcus epidermidis MTCC 435 after 16 to 18 hr by serial dilution method; type: functional
[20] = test system: Aspergillus fumigatus; experiment: Antifungal activity against Aspergillus fumigatus MTCC 343 after 28 to 30 hr by serial dilution method; type: functional
[21] = test system: Candida albicans; type: functional, MTCC 227
[22] = test system: Aspergillus niger; experiment: Antifungal activity against Aspergillus niger MTCC 282 after 28 to 30 hr by serial dilution method; type: functional

| Compound | inhibition zone (IZ) [1] [mm] | MIC [2] [µg/mL] | inhibition zone (IZ) [3] [mm] | MIC [4] [µg/mL] | inhibition zone (IZ) [5] [mm] | inhibition zone (IZ) [7] [mm] | MIC [8] [µg/mL] | inhibition zone (IZ) [10] [mm] | inhibition zone (IZ) [11] [mm] | inhibition zone (IZ) [12] [mm] | MIC [13] [µg/mL] | inhibition zone (IZ) [14] [mm] | MIC [15] [µg/mL] | inhibition zone (IZ) [16] [mm] | inhibition zone (IZ) [17] [mm] | MIC [18] [µg/mL] | MIC [19] [µg/mL] | MIC [20] [µg/mL] | inhibition zone (IZ) [21] [mm] | MIC [22] [µg/mL] | further results |
| --- | --- | --- | --- | --- | --- | --- | --- | --- | --- | --- | --- | --- | --- | --- | --- | --- | --- | --- | --- | --- | --- |
| O=c1cc(OCc2nnc(-c3ccc(Br)cc3)[nH]2)c2ccccc2o1 | 15 | 25 (≈ 62.8 µM) | <10 | 12.5 (≈ 31.4 µM) | <10 | 11 | 6.25 (≈ 15.7 µM) | 12 | 12 | <10 | 12.5 (≈ 31.4 µM) | 11 | 12.5 (≈ 31.4 µM) | 11 | 13 | 6.25 (≈ 15.7 µM) | 50 (≈ 126 µM) | 25 (≈ 62.8 µM) | 12 | 12.5 (≈ 31.4 µM) | MIC [6]: 12.5 µg/mL (≈ 31.4 µM); MIC [9]: 6.25 µg/mL (≈ 15.7 µM) |
| O=c1cc(OCc2nnc(-c3ccc(O)cc3)[nH]2)c2ccccc2o1 | 14 | 50 (≈ 149 µM) | <10 | 25 (≈ 74.6 µM) | 12 | 12 | 6.25 (≈ 18.6 µM) | <10 | <10 | 11 | 25 (≈ 74.6 µM) | 10 | 50 (≈ 149 µM) | 11 | 14 | 6.25 (≈ 18.6 µM) | 12.5 (≈ 37.3 µM) | 12.5 (≈ 37.3 µM) | 15 | 12.5 (≈ 37.3 µM) | MIC [6]: 12.5 µg/mL (≈ 37.3 µM); MIC [9]: 6.25 µg/mL (≈ 18.6 µM) |
| Cc1ccc(-c2nnc(COc3cc(=O)oc4ccccc34)[nH]2)cc1 | 11 | 12.5 (≈ 37.5 µM) | 11 | 25 (≈ 75 µM) | 11 | 13 | 12.5 (≈ 37.5 µM) | 11 | <10 | <10 | 12.5 (≈ 37.5 µM) | 12 | 12.5 (≈ 37.5 µM) | 11 | 13 | 6.26 (≈ 18.8 µM) | 50 (≈ 150 µM) | 25 (≈ 75 µM) | 15 | 6.25 (≈ 18.7 µM) | MIC [6]: 12.5 µg/mL (≈ 37.5 µM); MIC [9]: 12.5 µg/mL (≈ 37.5 µM) |
| COc1ccc(-c2nnc(COc3cc(=O)oc4ccccc34)[nH]2)cc1 | 11 | 50 (≈ 143 µM) | <10 | 25 (≈ 71.6 µM) | <10 | 12 | 6.25 (≈ 17.9 µM) | 11 | <10 | <10 | 25 (≈ 71.6 µM) | <10 | 12.5 (≈ 35.8 µM) | 13 | 14 | 6.25 (≈ 17.9 µM) | 25 (≈ 71.6 µM) | 25 (≈ 71.6 µM) | 14 | 6.25 (≈ 17.9 µM) | MIC [6]: 6.25 µg/mL (≈ 17.9 µM); MIC [9]: 12.5 µg/mL (≈ 35.8 µM) |
| O=C(O)c1cn(C2CC2)c2cc(N3CCNCC3)c(F)cc2c1=O [CIPROFLOXACIN] |  |  | 16 |  |  |  | 6.25 (≈ 18.9 µM) | 18 |  | 15 | 6.25 (≈ 18.9 µM) | 19 | 6.25 (≈ 18.9 µM) | 17 | 17 |  | 6.25 (≈ 18.9 µM) |  |  |  |  |
| Clc1ccc(COC(Cn2ccnc2)c2ccc(Cl)cc2Cl)c(Cl)c1 (stereo unspecified) [MICONAZOLE] |  |  |  | 6.25 (≈ 15 µM) | 14 | 17 |  |  | 17 |  |  |  |  |  |  | 6.25 (≈ 15 µM) |  | 12.5 (≈ 30 µM) | 15 | 6.25 (≈ 15 µM) |  |
